Measured values taken from patent US9487787B2, “Method for regulating protein function in cells using synthetic small molecules” (The Board of Trustees of the Leland Stanford Junior …, priority 2007, dated 2016).
Peptide text beside a SMILES is read from it. * marks the point of attachment. Cbz = O=C(OCc1ccccc1)*

Tests used:
[1] = biological target: FKBP F36V variant (Homo sapiens, UniProt P62942, F37V); details: Clackson et al. 1998; cited from earlier work
[2] = system: L106P-RhoA, L106P-Cdc42, Arl7-L106P in NIH3T3 cells; test: Ligand-dependent control of cell morphology by GTPase fusions, confocal microscopy; type: cell-based; details: Shield1-treated, mock-treated or Shield1 removed
Description: NIH3T3 cells stably expressing constitutively active GTPases fused to destabilizing domains were treated with 1 μM Shield1 for 24 hr. At this time, cells were washed once with PBS, plated at 8×10^3 cells in 4-well LabTek Chambered coverglass (NUNC) coated with 1 mg/ml poly-D-lysine (Sigma), along with mock-treated transduced cells and transduced cells treated with 1 μM Shield1. Cells were cultured for 24 hr in 10% DBS, then cultured in serum-free media for 12 hr. Cells were then washed with PBS, fixed in 4% paraformaldehyde for 15 min, permeabilized in 0.2% Triton X-100 for 5 min, stained with 1 μg/ml Alexa Fluor 488-conjugated phalloidin (Invitrogen; A12379) in PBS for 20 min, and washed with PBS. Fixed cells were imaged using a Bio-Rad Radiance 2100 confocal microscope.
Expression of constitutively active small GTPases causes well-characterized changes in cellular morphology (Heo and Meyer, 2003). To determine if FKBP-derived destabilizing domains, in combination with Shield1, could affect cell morphology by modulating GTPases levels, several small GTPases (i.e., RhoA, Cdc42, or Arl7) were fused to the destabilizing domains (FIGS. 4A and 4B). NIH3T3 cells were individually transduced with the L106P-RhoA, L106P-Cdc42, or Arl7-L106P (note arrangement of fusions), and then mock-treated or treated with Shield1, and visualized using confocal microscopy (not shown). […]

[3] = system: FKBP variant fusions to proteins of interest in NIH3T3 cells; test: Immunoblot of proteins of interest fused to FKBP destabilizing domains, mock or 1 μM Shield1; type: cell-based
Description: (FIG. 4A) FKBP variants F15S and L106P were fused to the N-termini of several different proteins and transduced into NIH3T3 cells. Cell populations stably expressing the fusions were then either mock-treated or treated with 1 μM Shield1, and cell lysates were subjected to immunoblot analysis using antibodies specific for the protein of interest. Endogenous proteins served as loading controls (when detected) and Hsp90 served as a loading control otherwise. (FIG. 4B) FKBP variants D100G and L106P were fused to the C-termini of several different proteins of interest and treated as above.
An additional example is CD8α, a transmembrane glycoprotein found on the surface of T cells, which was able to be detected on the surface of cells by flow cytometry (FIG. 5), in a Shield1-dependent manner. […] Here, NIH3T3 cells stably expressing the fusion proteins were divided into three pools (groups). The first group (−) was mock-treated, the second group (+) was treated with 1 μM Shield1 for 24 hrs, and the third group (+/−) was treated with 1 μM Shield1 for 24 hrs, and then washed with media and cultured for 24 hr in the absence of Shield1. Live cells were then probed with a FITC-conjugated anti-CD8α antibody and assayed by flow cytometry. Data are presented as the average mean fluorescence intensity±SEM from an experiment performed in triplicate.

[4] = system: falcipain-2 fused to the F36V/L106P FKBP mutant; test: Conditional falcipain stabilization, swollen vacuole phenotype; type: cell-based, Plasmodium falciparum
Text: In a related experiment, fusion proteins were made with falcipain-2, a cysteine protease. Knocking out the falcipain-2 gene causes vacuole swelling resulting from the decreased ability of the organisms to degrade hemoglobin. Fusion of falcipain-2 to the F36V/L106P FKBP mutant produced a conditional falcipain stabilization system.

[5] = system: luciferase fused to FKBP-derived stability-affecting protein (F36V/L106P); test: Bioluminescence imaging of mice challenged with HCT116 tumor cells expressing luciferase-FKBP fusion; type: in vivo, SCID mice
Text: FIGS. 7A and 7B are graphs showing the results of an experiments in which SCID mice were challenged with tumor cells genetically manipulated to express luciferase fused to a stability-affecting protein.
HCT116 cancer cells were transfected with a nucleic acids encoding the reporter gene luciferase fused to an FKBP-derived stability-affecting protein (F36V/L106P) mutant. Stable transformants were then selected and used to challenge SCID mice.
The results of an experiments in which SCID were challenged with tumor cells harboring nucleic acids encoding luciferase fused to an FKBP-derived, stability-affecting protein (F36V/L106P) are shown in FIGS. 7A and 7B. The mice were either untreated or treated with the indicated amounts of ligand (Shield1) and bioluminescent signals were imaged over time as described (Lin, A. H., et al. (2005) J. Immunol. 175:547-54; Luo, J., et al. (2006) Proc. Nat'l. Acad. Sci. USA 103:18326-31; n=4-10 mice per treatment group).

[6] = system: FKBP-YFP fusion proteins; test: Kinetics of FKBP-YFP fluorescence upon addition of Shield1; type: cell-based, human; details: NIH3T3 cells stably expressing FKBP-YFP variants
Description: (§1) The data for FIGS. 2A-2D are presented as the average mean fluorescence intensity (MFI)±SEM relative to that of the maximum fluorescence intensity observed for the individual mutant. Experiments were performed in triplicate. (FIG. 2A) Fluorescence of FKBP-YFP fusion proteins expressed in NIH3T3 cells as determined by flow cytometry in the absence of Shield1. (FIG. 2B) NIH3T3 cells stably expressing FKBP-YFP fusion proteins were treated with three-fold dilutions of Shield1 (1 μM to 0.1 nM) and the fluorescence was monitored by flow cytometry. (FIG. 2C) NIH3T3 cells stably expressing FKBP-YFP fusion proteins were either mock-treated (circles) or treated with 30 nM Shield1 (squares), 100 nM Shield1 (diamonds), 300 nM Shield1 (crosses), or 1 μM Shield1 (triangles). Fluorescence was monitored over time using flow cytometry. MFI was normalized to 100% of cells treated with 1 μM Shield1 at 24 hrs. (FIG. 2D) NIH3T3 cells stably expressing FKBP-YFP fusion proteins were treated with 1 μM Shield1 for 24 hours at which point the cells were washed with media to remove Shield1, and the decrease in fluorescence was monitored using flow cytometry.
(§2) FIG. 8 is a graph showing the kinetics of FKBP-YFP fluorescence in cells upon addition of Shield1. NIH3T3 cells stably expressing the indicated FKBP-YFP fusions were treated with 1 μM Shield1, and increases in fluorescence were monitored over time using flow cytometry. Data are presented as the average mean fluorescence intensity (MFI)±SEM relative to that of the maximum fluorescence intensity observed for the individual variant. The experiment was performed in triplicate, and MFI was normalized to 100% at 24 hr.
(§3) In a kinetic study of NIH3T3 cells stably expressing each of the five FKBP-derived, ligand-responsive destabilizing domain variants, YFP fluorescence increased at approximately the same rate upon addition of Shield1, with maximum fluorescence achieved at 24 hours and stably maintained for at least an additional 48 hours without further addition of Shield1 (FIG. 2C). […]

[7] = biological target: T1, FKBP-YFP fusion proteins (Homo sapiens, UniProt P62942, F37V); test: as above; type: cell-based; details: NIH3T3 cells transduced with L106P-YFP
T1 construct: expressed in transfected cells
Description: as §1, §2, §3

[8] = system: YFP fusion protein; test: Immunoblot of YFP fusion protein in transfected Plasmodium; type: cell-based, Plasmodium falciparum
[9] = system: FKBP-derived stability-affecting domain fused to the N-terminus of YFP; test: Time lapse fluorescence microscopy of parasitophorous vacuoles in infected HFF cells; type: cell-based, Toxoplasma gondii; details: T. gondii in HFF cells
Text: The fluorescence of parasitophorous vacuoles in infected cells was monitored by time lapse microscopy following addition (FIG. 6B) or removal of ligand (FIG. 6C). Background fluorescence is indicated.
Nucleotides expressing the fusion the fusion protein were introduced into T. gondii parasites, which were then used to infect HFF cells. The parasitophorous vacuoles in the infected cells were monitored by time lapse fluorescence microscopy following the addition of ligand (Shield1; FIG. 6B) or following the removal of ligand (FIG. 6C). The indicated control line corresponds to background fluorescence, while each of the other lines in the graphs correspond to individual infected cells.

[10] = biological target: T2, FKBP V24A-YFP fusion protein (Homo sapiens, UniProt P62942, F37V/V25A); test: Shield1 dose-response stabilization of FKBP-YFP fusion, flow cytometry; type: cell-based; details: NIH3T3 cells stably expressing V24A FKBP-YFP; extracellular Shield1 giving 50% of maximum YFP signal; read-out: EC50 of stabilization (rescue) by Shield1
T2 construct: expressed in transfected cells; host or cells: NIH3T3 (retroviral transduction)
Description: as §1
(§4) Twenty-four hours prior to analysis, transduced NIH3T3 cells were plated at 1×10^5 cells per well of a 12-well plate and treated as described. Cells were removed from the plate using PBS+2 mM EDTA, washed once with PBS, and resuspended in 200 μl PBS. Cells were analyzed at the Stanford Shared FACS Facility using FlasherII with 10,000 events represented.
(§5) Each variant FKBP-derived, ligand-responsive destabilizing domain was separately transduced into NIH3T3 cells, and YFP fluorescence levels were measured in the absence of Shield1 (FIG. 2A). […] The most destabilizing variation, L106P, produced YFP fluorescence at a level of only 1-2% relative to the positive control. All FKBP-derived, ligand-responsive destabilizing domain variants produced increased fluorescence signal when incubated in the presence of Shield1 ([…]). […]

[11] = biological target: T3, FKBP L106P-YFP fusion protein (Homo sapiens, UniProt P62942, F37V); test: as above; type: cell-based
T3 construct: expressed in transfected cells
Description: as §1, §4, §5

[12] = system: proteasome; test: Immunoblot of F15S-YFP and L106P-YFP after Shield1 withdrawal with proteasome inhibitors; type: cell-based; details: 10 μM, 4 hrs, F15S-YFP and L106P-YFP in NIH3T3
Description: Immunoblot analysis was performed using an anti-YFP antibody.
The mechanism of degradation was examined for the F15S and L106P variants. Since the ubiquitin-proteasome system is a major mediator of intracellular protein degradation (Pickart, 2004), the cells expressing either the FKBP-derived, ligand-responsive destabilizing domain variants F15S or L106P were incubated with MG132 (FIG. 2F) or lactacystin (FIG. 9), which inhibit ubiquitin-proteasome-mediated protein degradation.

Sequence of luciferase fused to FKBP-derived stability-affecting protein (F36V/L106P) (P62942 with tags, fused parts or gaps F37V limits assumed): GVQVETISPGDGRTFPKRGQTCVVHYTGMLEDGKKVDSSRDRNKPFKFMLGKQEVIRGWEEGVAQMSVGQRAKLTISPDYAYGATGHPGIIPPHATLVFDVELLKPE
T3 sequence (P62942 with tags, fused parts or gaps F37V): as the sequence (P62942 with tags, fused parts or gaps F37V limits assumed) above
T2 sequence (P62942 2-108 V25A/F37V): as the sequence (P62942 with tags, fused parts or gaps F37V limits assumed) above, with V24A, P106L counted along it
Sequence of falcipain-2 fused to the F36V/L106P FKBP mutant (P62942 with tags, fused parts or gaps F37V limits assumed): as the sequence (P62942 with tags, fused parts or gaps F37V limits assumed) above
T1 sequence (P62942 with tags, fused parts or gaps F37V): as the sequence (P62942 with tags, fused parts or gaps F37V limits assumed) above
Sequence of FKBP F36V variant (P62942 2-108 F37V limits assumed): as the sequence (P62942 with tags, fused parts or gaps F37V limits assumed) above, with P106L counted along it

Compound	binding to F36V variant compared to wild-type FKBP [1]	percentage of cells displaying the predicted morphology (penetrance) [2] [%]	Shield1-dependent stability of fusion proteins [3]	organisms with swollen vacuole phenotype, presence of ligand compared to absence [4]	effect of repeated administration of the ligand ([5]; 10 mg/kg Shield1 every 48 hours)	time of peak luminescence following a single injection of ligand ([5]; SCID mice, HCT116 luciferase-FKBP F36V/L106P tumors)	dependence of luminescence on ligand dose ([5]; SCID mice, single injection)	additional time maximum fluorescence is stably maintained without further addition of Shield1 [6] [h]	time at which maximum fluorescence is achieved after addition of Shield1 [6] [h]	time within which YFP expression is observed after Shield1 treatment [7] [min]	levels of YFP fusion protein in the presence of ligand [8]	levels of YFP on addition / removal of ligand [9]	EC50 [10] [nM]	L106P-YFP stabilization upon addition of Shield1 ([11]; 1 μM Shield1)	EC50 ([11]; NIH3T3 cells stably expressing L106P FKBP-YFP) [nM]	effect on degradation of variant FKBP fusion proteins following withdrawal of Shield1 [12]
1-[2-(3,4,5-trimethoxy-phenyl)-butyryl]-piperazine-2-carboxylic acid 3-(3,4-dimethoxy-phenyl)-1-[3-(2-morpholin-4-yl-ethoxy)-phenyl]-propyl ester [Shield1]	about 1,000 fold	> 90	Shield1-dependent stability	More than 5 times	continued luciferase stabilization	about 10 hours	dependent on ligand dose	≥ 48	24	≤ 15	greatly increased	levels of YFP increase in the presence of ligand and decrease in the absence of ligand	~5	fully stabilized	~100	
CC(C)C[C@@H](C=O)NC(=O)[C@H](CC(C)C)NC(=O)[C@H](CC(C)C)NC(=O)OCc1ccccc1 [MG132] (Cbz-Leu-Leu-Leu-aldehyde)																inhibited degradation
CC(=O)N[C@@H](CSC(=O)[C@]1([C@@H](O)C(C)C)NC(=O)[C@H](C)[C@@H]1O)C(=O)O [lactacystin]																inhibited degradation
